These results are taken from publication PMC8546149, “Antibiotic-chemoattractants enhance neutrophil clearance of Staphylococcus aureus” (Nature Communications, 2021).

Experiment [1] in a line: Mouse pneumonia model, lung histology (alveoli space, nuclei). The experiment is classed as in vivo. Also noted: Area of lung: unit not given here. The note with it: each line is an individual value, listed as Van. Here is the method: For pathology assessment, excised lungs from one mouse for each of the treatment group was fixed in 10% buffered formalin before undergoing routine histological processing (Monash University Histology Platform). Lungs were embedded in paraffin, cut into 5 µm thick sections and stained with hematoxylin and eosin. Tissue pathology was assessed by a veterinary pathologist (Dr Mark Williamson, Gribbles Veterinary Pathology, Clayton, Australia).
The loss of alveoli structure was quantified in the H&E sections by determining the area of white space in six FOV (1.8 × 1.2 mm) in the outer lobes of the lung (threshold of 0–240). In addition, the number of nuclei in these FOV were also determined. This was performed by isolating nuclei in the image (threshold of 0–130) and then using the analyze particle function (particles 80–4000, circularity 0.05–1) in FIJI[36] to count the number of nuclei detected. Data were plotted using GraphPad Prism 8 software.

A further experiment relates to human neutrophils. The experiment is described as follows: Transwell chemotaxis assay. The experiment is classed as cell-based. The note with it: any of the concentrations tested (1-1000 nM).
For a further experiment, the system named is S. aureus. Kind of experiment: Antimicrobial microbroth dilution assay (growth, MIC). Format: cell-based. The note with it: Staphylococcus aureus, 20 h, 90% growth inhibition at 20 h, ±SD, n=4. The procedure:
All bacterial isolates used in this study are listed in Supplementary Table 1. The American Type Culture Collection strain (ATCC 29213) and S. aureus strains were cultured onto brain heart infusion (BHI) agar (BD) or into broth (BD) and grown at 37 °C with shaking. S. aureus was grown in cation adjusted Muller Hinton Broth II (CAMHB, Becton Dickson) for testing. All bacterial strains were stored in glycerol broth at −80 °C.
Antimicrobial activity of the antibiotic-chemoattractants was determined as per the Clinical and Laboratory Standards Institute guidelines for microbroth dilution assays. Compounds stocks were prepared as two-fold serial dilution at 10x stock concentration required (final concentration of DMSO 0.5%). Growth of the S. aureus (5 × 10^5 CFU/mL in CAMHB) was monitored in 96-well flat bottom polypropylene microtiter plates (Greiner) covered with BreatheEasy membranes (Diversified Biotech) and absorbance of each well was measured at 595 nm every 4 h for 24 h (Clariostar plate reader, software v5.20R5, BMG). The percentage growth was calculated relative to the no compound control and the average of three biological replicates plotted using GraphPad Prism 9 software. The minimum inhibitory concentration was determined by the lowest drug concentration that inhibited bacterial growth to 90% compared to the 0 μM control.

The test system of a further experiment is S. aureus (SH1000-GFP). Kind of experiment: Infection-on-a-chip S. aureus growth (GFP area) with neutrophils. The experiment is classed as cell-based, Staphylococcus aureus. Here is the method:
Use of this microfluidic device for monitoring migration of neutrophils and control of the S. aureus growth in cell culture medium has been outlined in detail previously. Briefly, microfluidic devices were primed with S. aureus (SH1000-GFP, 1 × 10^6/mL) in culture media (Iscove’s Modified Dulbecco’s Medium + 10% Fetal Bovine Serum) by loading the outer chamber and applying vacuum to draw bacteria into the inner chambers. The outer chamber was then washed by pushing 200 µL of media through the device using a pipette, and loaded with neutrophils (5.5 × 10^6/mL, stained with Hoechst 33342 dye, 10 min at 32 μM). Additionally, neutrophil phagocytosis was monitored by using pHrodo Red S. aureus BioParticles® (Life Technologies) in replace of live S. aureus cells. […] The concentration of cells were determined by hemocytometer.
Kinetics of neutrophil migration, S. aureus growth and phagocytosis was determined using imaging with an automated Nikon Eclipse TiE inverted wide-field microscope with stage control and perfect focus system run through the Nikon NIS element v4. […] The percentage of neutrophils recruited into the chamber was determined relative to the total number of neutrophils in each FOV divided by the number of chambers visible. […] The pHrodo or S. aureus GFP fluorescence within the microchamber was calculated by thresholding the image and measuring the area in FIJI[36]. […]

The target of experiment [2] is T1, formyl peptide receptor 1 (FPR1) (human, UniProt P21462 1-350).
T1 sequence (looked up): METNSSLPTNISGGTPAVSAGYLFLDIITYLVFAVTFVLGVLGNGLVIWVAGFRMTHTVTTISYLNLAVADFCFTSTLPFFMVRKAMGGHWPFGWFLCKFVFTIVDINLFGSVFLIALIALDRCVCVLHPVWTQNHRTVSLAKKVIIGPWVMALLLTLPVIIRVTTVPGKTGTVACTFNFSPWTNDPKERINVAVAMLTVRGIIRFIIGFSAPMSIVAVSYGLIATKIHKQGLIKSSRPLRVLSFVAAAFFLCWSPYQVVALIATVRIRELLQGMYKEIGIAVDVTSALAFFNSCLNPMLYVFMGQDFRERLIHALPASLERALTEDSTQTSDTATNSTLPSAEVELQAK

Experiment [3] concerns FPR2 of human neutrophils. Kind of experiment: FPR competition binding assay with RhB-PB10. The note with it: 8 µM peptide, 5 min, after RhB-PB10 15 µM 1 h, Bis-Tris pH 6. Here is the method: A competition binding assay was performed based modification of the previous method. To determine the interaction of the formylated peptides with FPR2 of human neutrophils the fluorescently labelled FPR2 antagonist RhB-PB10 was used. RhB-PB10 was synthesized by solid-phase peptide synthesis on Wang resin. After initial acylation with Fmoc-L-Arg(Pbf)-OH, peptide elongation was performed using a solution of 20% piperidine for Fmoc removal and DIC/ Oxyma for Fmoc-amino acid or Rhodamine B coupling. After completion of the sequence, the peptide was cleaved from the resin and protecting groups were removed via TFA cleavage. Following concentration, the peptide was precipitated using diethyl ether, collected by centrifugation on a spark-resistant centrifuge and purified using RP-HPLC.
RhB-PB10 (15 μM) was preincubated with human neutrophils (5 × 10^6 neutrophils/mL) in Bis-Tris buffer pH 6 for 1 h. […] Any RhB-PB10 that was competed off by the peptides was then removed by washing in Bis-Tris buffer. Rhodamine B fluorescence levels of each sample were determined using microplate reader (Clariostar plate reader, BMG) with ex 550 nm, em 585 nm.

For experiment [4], the target named is T1, formyl peptide receptor 1 (FPR1). Kind of experiment: cell-based or functional assay.

Converted amounts (≈) assume the structure as drawn. “And” between values parts separate entries of the source, which are not always exact repeats. Identical values can stand only once. Like-named read-outs stand apart in the source and are kept apart here. Non-standard residues stand in square brackets, D forms with d. No end group written: not given here. *: point of attachment. Pra = C#CC[C@H](N)C(=O)O; For = O=C*

Take `CN[C@H](CC(C)C)C(=O)N[C@H]1C(=O)N[C@@H](CC(N)=O)C(=O)N[C@H]2C(=O)N[C@H]3C(=O)N[C@H](C(=O)N[C@H](C(=O)O)c4cc(O)cc(O)c4-c4cc3ccc4O)[C@H](O)c3ccc(c(Cl)c3)Oc3cc2cc(c3O[C@@H]2O[C@H](CO)[C@@H](O)[C@H](O)[C@H]2O[C@H]2C[C@](C)(N)[C@H](O)[C@H](C)O2)Oc2ccc(cc2Cl)[C@H]1O` [Vancomycin, vancomycin]: the Area of lung in experiment [1] is 61.3 and 69.7 and 55.1 and 61.6 and 71.0 and 68.4 and 57.8. Moreover, the Nuclei in experiment [1] is 6013 and 1856 and 2087 and 3027 and 4794 and 2455. Further, in the experiment on human neutrophils, the “neutrophil recruitment (in words)” value was “no neutrophil recruitment”. Also, the MIC in the experiment with S. aureus (A8819 (daptomycin susceptible, ST105)) came out at 0.8 ± 0.1 µM (≈ 1.16 µg/mL); with S. aureus (ATCC 29213 / MSSA, ATCC 29213 (MSSA)) it was 1 ± 0.25 µM (≈ 1.45 µg/mL); in the experiment with S. aureus (MRSA, A5937 (MRSA, ST5)), 0.6 ± 0.01 µM (≈ 0.87 µg/mL); in the experiment with S. aureus (MRSA, A5948 (MRSA, ST8)) it was 0.3 ± 0.03 µM (≈ 0.435 µg/mL); against S. aureus (MRSA, A6300 (MRSA, ST5)), 1 ± 0.2 µM (≈ 1.45 µg/mL); in the experiment on S. aureus (MRSA, A8090 (MRSA, ST5)), 0.6 ± 0.01 µM (≈ 0.87 µg/mL). The MIC in the experiment with S. aureus (MRSA, A9719 (MRSA, ST5)) amounted to 1 ± 0.3 µM (≈ 1.45 µg/mL); with S. aureus (MRSA, A9754 (MRSA, ST8)), 1.1 ± 0.06 µM (≈ 1.59 µg/mL); in the experiment on S. aureus (MSSA, A9635 (MSSA, ST1892)), 0.6 ± 0.01 µM (≈ 0.87 µg/mL).
Turning to Van-C(H-MLFG-Tz) [C12], the “growth inhibition of S. aureus by neutrophils in the microfluidic assay” value with S. aureus (SH1000-GFP) is listed as “no observable growth inhibition”. Also, the “neutrophil recruitment (in words)” value in the experiment on human neutrophils was “no neutrophil recruitment”.
For “fMChaFG = van (fMChaFG conjugated to the C-terminus of vancomycin) (peptide)”, in experiment [2], the ERK1/2 phosphorylation at 5 min in CHO cells overexpressing human FPR1, potency of the conjugate against the free peptide (lower potency) turned out to be 10 fold and the calcium mobilization in CHO cells overexpressing human FPR1, potency of the conjugate against the free peptide (lower potency) is greater than 90 fold.
Consider fMIVIL [FPR2 specific agonist (Auspep)], for which the “RhB-PB10 binding to neutrophils relative to control (=1)” value in experiment [3] (replicate 1) came out at 0.81; in experiment [3] (replicate 2), 0.79; in experiment [3] (replicate 3), 0.62; in experiment [3] (replicate 4) it was 0.75; in experiment [3] (replicate 5), 0.7.

B1: fMLFG = van (fMLFG conjugated to the C-terminus of vancomycin, no PEG linker) (peptide)
peptide: For-MLFG[Pra]
modifications: also: C-terminal propargylglycine linked by click (triazole) to azide-modified vancomycin carboxyl group
In the case of B1, in experiment [4], the “ERK1/2 phosphorylation at 5 min in CHO cells overexpressing human FPR1, potency of the conjugate against the free peptide (lower potency)” value was 10 fold and the “calcium mobilization in CHO cells overexpressing human FPR1, potency of the conjugate against the free peptide (lower potency)” value is greater than 90 fold.
